According to US6806229B1, “Herbicidally active pyridine sulfonyl urea derivatives” (LG Life Sciences, priority 2003, dated 2004):
Read-outs that look alike come from different tables or passages of the source.

What was measured:
Format in all cases: in vivo
Oryza sativa = test: Phytotoxicity to rice (direct-seeded and transplanted) in paddy condition, greenhouse pot test; conditions: visual rating after two weeks; for Phytotoxicity, Oryza sativa, Seed: direct-seeded rice, treated 5 days after sowing; for Phytotoxicity, Oryza sativa, Transplanted: transplanted rice seedlings, treated 5 days after transplanting
Source text: (§1) Pots having a surface area of 150 cm^2 were filled with a small amount of fertilizer and sterilized paddy field soil in a muddy state with a depth of 5 cm. Five (5) seeds of pre-germinated rice were directly sown on the soil surface and three (3) rice seedlings (2˜3 leaves) prepared in advance were transplanted in a depth of 2 cm in each pot. In another pot, seeds of barnyardgrass were sown and incorporated into the surface layer of soil. After sowing and transplanting of rice plant and sowing of barnyardgrass, the pots were flooded with water 3 cm deep and kept in a greenhouse. The rice plant was treated with the chemicals 5 days after sowing or transplanting, and barnyardgrass was treated with the chemicals at the pre-emergence (5 days after from sowing) and post-emergence stage (at the three-leaf stage, usually after 15 days from sowing).
(§2) Suitable herbicidal compositions were prepared by mixing and dissolving 1 part by weight of the active compound with 5 parts by weight of acetone and 1 part by weight of alkylaryl polyglycolether as an emulsifier and then diluting with water to the predetermined concentration. Application was made by dropping the herbicide solutions onto the water surface of the pots.

Echinochloa crus-galli = test: Herbicidal activity to barnyardgrass in paddy condition, pre- and post-emergence, greenhouse pot test; conditions: Echinochloa crus-galli, 336 h, visual rating after two weeks
Source text: as §1, §2

[1] = test system: Monochoria vaginaiis (MOOVA); test: Weed spectrum in paddy field, MOOVA; conditions: 20 g/ha; applied 5 days after sowing; observed two weeks
Protocol: as §2
(§3) Pots having a surface area of 500 cm^2 were filled with the soil in a muddy state as mentioned above. Seeds of annual weeds such as Monochoria vaginaiis (MOOVA), Lindernia procumbens (LIDPR), Rotala indica (ROTIN), Scirpus jumcoides (SCPJU), etc. were sown on the surface layer of soil, and then were planted tubers of perennial weeds such as Cyperus serotinus (CYPSE) and Sagittaria pygmaea (SAGPY) in a depth of 1 cm, and Eleocharis kuroguwai (ELOKU) and Sagittaria trifolia (SAGTR) in a depth of 4 cm. After 5 days, the chemicals were formulated as mentioned above and applied by dropping to the water surface of the pots.

[2] = test system: Lindernia procumbens (LIDPR); test: Weed spectrum in paddy field, LIDPR; conditions: 20 g/ha; applied 5 days after sowing; observed two weeks
Protocol: as §2, §3

Rotala indica (ROTIN) = test: Weed spectrum in paddy field, ROTIN; conditions: 20 g/ha; applied 5 days after sowing; observed two weeks
Protocol: as §2, §3

[3] = test system: Scirpus jumcoides (SCPJU); test: Weed spectrum in paddy field, SCPJU; conditions: 20 g/ha; applied 5 days after sowing; observed two weeks
Protocol: as §2, §3

[4] = test system: Cyperus serotinus (CYPSE); test: Weed spectrum in paddy field, CYPSE; conditions: 20 g/ha; tubers planted 1 cm deep; applied after 5 days; observed two weeks
Protocol: as §2, §3

[5] = test system: Sagittaria pygmaea (SAGPY); test: Weed spectrum in paddy field, SAGPY; conditions: 20 g/ha; tubers planted 1 cm deep; applied after 5 days; observed two weeks
Protocol: as §2, §3

[6] = test system: Eleocharis kuroguwai (ELOKU); test: Weed spectrum in paddy field, ELOKU; conditions: 20 g/ha; tubers planted 4 cm deep; applied after 5 days; observed two weeks
Protocol: as §2, §3

[7] = test system: Sagittaria trifolia (SAGTR); test: Weed spectrum in paddy field, SAGTR; conditions: 20 g/ha; tubers planted 4 cm deep; applied after 5 days; observed two weeks
Protocol: as §2, §3

[8] = 80 g/ha, 0 = none, 100 = complete death
[9] = post-emergence, three-leaf stage, read-out: Herbicidal activity, Echinochloa crus-galli, Post-emergence (3-Leaf stage)
[10] = pre-emergence (5 days after sowing), read-out: Herbicidal activity, Echinochloa crus-galli, Pre-emergence
[11] = pre-emergence (5 days after sowing), 0 = no activity, 100 = complete death, read-out: Herbicidal activity, Echinochloa crus-galli, Pre-emergence

Row | Compound | Phytotoxicity, Oryza sativa, Seed (Oryza sativa; 10 g/ha) | Phytotoxicity, Oryza sativa, Transplanted (Oryza sativa; 10 g/ha) | Phytotoxicity, Oryza sativa, Seed (Oryza sativa; 20 g/ha) | Phytotoxicity, Oryza sativa, Transplanted (Oryza sativa; 20 g/ha) | Phytotoxicity, Oryza sativa, Seed (Oryza sativa; 40 g/ha) | Phytotoxicity, Oryza sativa, Transplanted (Oryza sativa; 40 g/ha) | Phytotoxicity, Oryza sativa, Seed (Oryza sativa; [8]) | Phytotoxicity, Oryza sativa, Transplanted (Oryza sativa; 80 g/ha) | pest or weed control at 5 g/ha (Echinochloa crus-galli; [9]) | pest or weed control at 5 g/ha (Echinochloa crus-galli; [10]) | pest or weed control at 10 g/ha (Echinochloa crus-galli; [9]) | pest or weed control at 10 g/ha (Echinochloa crus-galli; [10]) | pest or weed control at 20 g/ha (Echinochloa crus-galli; [9]) | pest or weed control at 20 g/ha (Echinochloa crus-galli; [10]) | pest or weed control at 30 g/ha (Echinochloa crus-galli; [9]) | pest or weed control at 30 g/ha (Echinochloa crus-galli; [11]) | Weed spectrum, Annual weeds, MOOVA [1] | Weed spectrum, Annual weeds, LIDPR [2] | Weed spectrum, Annual weeds, ROTIN (Rotala indica (ROTIN)) | Weed spectrum, Annual weeds, SCPjU [3] | further results
1 | COCC(=O)O[C@H](c1ncccc1S(=O)(=O)NC(=O)Nc1nc(OC)cc(OC)n1)[C@H](C)F [Com. 2] | 0% | 0% | 0% | 0% | 20% | 10% | 30% | 10% | 50% | 60% | 90% | 100% | 100% | 100% | 100% | 100% | 100 | 100 | 100 | 100 | Weed spectrum, Perennial weeds, CYPSE [4]: 100; Weed spectrum, Perennial weeds, SAGPY [5]: 95; Weed spectrum, Perennial weeds, ELOKU [6]: 95; Weed spectrum, Perennial weeds, SAGTR [7]: 90
2 | COCCC(=O)O[C@H](c1ncccc1S(=O)(=O)NC(=O)Nc1nc(OC)cc(OC)n1)[C@H](C)F [Com. 4] | 0% | 0% | 0% | 0% | 20% | 10% | 30% | 20% | 60% | 60% | 90% | 95% | 100% | 100% | 100% | 100% | 100 | 100 | 100 | 100 | Weed spectrum, Perennial weeds, CYPSE [4]: 100; Weed spectrum, Perennial weeds, SAGPY [5]: 90; Weed spectrum, Perennial weeds, ELOKU [6]: 95; Weed spectrum, Perennial weeds, SAGTR [7]: 85
